According to US7427416B2, “Methods of treating conditions using metal-containing materials” (Nucryst Pharmaceuticals Corp., priority 2000, dated 2008):
Where “and” joins values, the source holds several entries; their conditions need not be identical. Identical values can stand only once.

Columns and labels:
Pseudomonas aeruginosa = assay: aerosol of silver solutions on streaked agar plates; assay type: cell-based; design: key to Growth at 16 h (0−++++) / Growth at 48 h (0−++++): (0−++++); (0−++++); (0−++++); (0−++++); conditions: for Growth at 16 h (0−++++) / Growth at 48 h (0−++++): aerosol 53 minutes; for Viable 4 h / Viable 16 h: regrowth in Tryptic soy broth
Protocol: (§1) The solutions were in turn placed in an ultrasonic nebulizer that created small droplets containing dissolved and suspended parts of the silver solution. The output from the nebulizer was directed into a chamber made from a stainless steel frame and base. Petri dishes containing Mueller Hinton agar streaked with 4 h old cultures of Pseudomonas aeruginosa and Staphylococcus aureus, were exposed to the silver solution aerosols and the silver nitrate aerosols.
(§2) The method used for the current tests was the mechanical method in the form of an ultrasonic nebulizer. For convenience an ultrasonic humidifier was used. The liquid containing the dissolved and suspended silver from the dressing of Example 1 was placed in the water reservoir of the humidifier. When power was applied to the humidifier aerosol droplets of dissolved and suspended silver were generated and flowed from the output nozzle.
(§3) A test chamber was constructed using a stainless steel frame with a transparent plastic covering. The frame was placed on a stainless steel base plate. The output nozzle from the humidifier was modified so that the aerosol could be directed into the chamber at a height of approximately 30 cm from the base. The plates and other test samples were placed on the stainless steel plate and exposed to the aerosol for a prescribed length of time.
(§4) Petri dishes, containing Mueller Hinton agar, were streaked with 4 h old cultures of Pseudomonas aeruginosa or Staphylococcus aureus. The plates were then weighed and their exposed outer surfaces were coated with Parafilm to prevent condensation from occurring on these surfaces. These plates were placed in the aerosol chamber uncovered. The ultrasonic nebulizer was then started and run for 53 minutes. The plates were then removed from the chamber, the plastic was removed and the dishes re-weighed so that the amount of moisture loss/gain could be determined.
(§5) The plates were then placed in a 35° C. incubator for 16 h. After incubation the pattern and amount of growth was assessed on the plates for both organisms.
(§6) Three of the six plates made for each organism were tested to determine if the antimicrobial effect was cidal or static in nature. This was accomplished by rinsing or placing a piece of the clear section of agar in the Petri dish plates into Tryptic soy broth in a test tube and incubating for 4 h or 16 h. If the medium turned turbid in 4 h it would indicate that the antimicrobial affect was bacteriostatic in nature. If the organisms took more than 16 h to grow, as indicated by turbidity, it was considered an indication that both static and cidal effects occurred. If no growth occurred the effect was bactericidal.
(§7) The solutions were in turn placed in an ultrasonic nebulizer that created small droplets containing dissolved and suspended parts of the solution of nanocrystalline noble metal-containing material. The output from the nebulizer was directed into a chamber made from a stainless steel frame and base. Petri dishes containing Mueller Hinton agar streaked with 4 h old cultures of Pseudomonas aerugiona and Staphylococcus aureus were exposed to nanocrystalline noble metal aerosols and the silver nitrate aerosols.
(§8) The method used to create an aerosol for these tests was the mechanical method in the form of an ultrasonic nebulizer. For convenience, an ultrasonic humidifier was used. The liquid containing the dissolved and suspended antimicrobial metal-containing material with atomic disorder was placed in the water reservoir of the humidifier. When power was applied to the humidifier, aerosol droplets of dissolved and suspended antimicrobial metal-containing material with atomic disorder were generated and flowed from the output nozzle.
(§9) A test chamber was constructed using a stainless steel frame with a transparent plastic covering. The frame was placed on a stainless steel plate.

Staphylococcus aureus = assay: as above; assay type: cell-based; design: key to Growth at 16 h (0−++++) / Growth at 48 h (0−++++): (0−++++); (0−++++); (0−++++); (0−++++); conditions: for Growth at 16 h (0−++++) / Growth at 48 h (0−++++): aerosol 53 minutes
Protocol: as §1, §2, §3, §4, §5, §6, §7, §8, §9

[1] = tested on: Pseudomonas aeruginosa strain 5588 infected lungs; assay: nebulized forms of silver in rats, gross lung score; assay type: in vivo, rat; conditions: after 24 h, nebulized solutions (400 ppm; colloidal silver 20 ppm)
Protocol: A solution was prepared by sparging CO2 through 1000 ml of reverse osmosis water using commercial CO2 Soda Syphon Charger. This process results in the pH of the water dropping to about 4. At this point, approximately 333 ml of the carbonated water was decanted into a plastic bottle and 333 square inches of nanocrystalline silver-coated net was added to the water. The nanocrystalline silver-coated net and water were placed in 37° C. shaker incubator and shaken at 180 RPM for 30 minutes to elevate the pH to approximately 5.8. The solution was then transferred to a beaker and stirred vigorously for 2 minutes to raise the pH to approximately at 7.3.
A colloidal silver solution (20 ppm) in was obtained from a commercial source.
The dissolution solutions were transferred to commercial nebulizers which were connected to a Medical air cylinder with a flow rate of approx. 20 L/min. The outflows of the nebulizers were connected to an animal chamber housing the rats to be dosed. All rats (40 randomly assigned animals) received the dosing. The rats received two —½ hour aerosol administrations of the test solutions on the day of infection. […]
All rats of each group of animals were sacrificed after 24 h. […] Lungs were grossly scored (absent=0, mild=1, moderate=2, and severe=3) based on the degree of involvement of consolidation, hemorrhage, edema and necrosis based upon gross observation.

[2] = tested on: Pseudomonas infected lungs; assay: rat lung infection, histopathology of lung samples; assay type: in vivo; conditions: for Consol Score / Inflam Score: 0=normal to 4 very severe
Protocol: A solution form nanocrystalline silver coated dressings (AgHDPE) from Example 1 was prepared by sparging CO2 through 1000 ml of reverse osmosis water using commercial CO2 Soda Syphon Charger. […] At this point, approximately 333 ml of the carbonated water was decanted into a plastic bottle and 333 square inches of nanocrystalline silver-coated net was added to the water. The nanocrystalline silver-coated net and water were placed in 37° C. shaker incubator and shaken at 180 RPM for 30 minutes to elevate the pH to approximately 5.8. The solution was then transferred to a beaker and stirred vigorously for 2 minutes to raise the pH to approximately at 7.3. The dissolution solution was transferred to a commercial nebulizer which was connected to a medical air cylinder with a flow rate of approx. 20 L/min. The outflow of the nebulizer was connected to a animal chamber housing the rats to be dosed. Only the “test” rats (12 randomly assigned animals) received the dosing. The rats received two —½ hour aerosol administrations of the test solution on the day of infection. Thereafter, the test rats were dosed 3 times per day for an additional one and a half days.
The bacteria used for infection of these animals were Pseudomonas aeruginosa strain 5588. The dose was previously titrated to ascertain that a dose of up to 10^9 CFU was not lethal for the animals. The bacteria were grown overnight in Tryptic soy broth, washed once in sterile PBS and resuspend in sterile PBS. The final concentration of the inoculum was 4×10^9 CFU/ml.
The rats were anesthetized by inhalation of 2% halothane. A 400 microliter volume of bacterial suspension was intratracheally administered in the bronchi of each rat. This was performed non-surgically on intubated animals.
Histopathology was scored (0-4) based upon the degree of consolidation and inflammation (neutrophil infiltration). The entire right middle lobes of all rats were collected for histopathology. As whole lobes were selected there was no bias toward any sample. All samples were fixed in neutral buffered formalin at the time the lung was removed from the thorax. It was fixed overnight, dehydrated and embedded in was. Sections were obtained which were hydrated and stained with haematoxylin and eosin.
All sections were examined by a veterinary pathologist who was blinded to the treatment groups, until after the samples were scored and comments were provided. (0=normal, 1=slight, 2 moderate, 3 severe, 4 very severe).

[3] = tested on: Pseudomonas infected lungs; assay: rat lung infection, gross lung score; assay type: in vivo; conditions: individual animals, absent=0, mild=1, moderate=2, severe=3
Protocol: A solution form nanocrystalline silver coated dressings (AgHDPE) from Example 1 was prepared by sparging CO2 through 1000 ml of reverse osmosis water using commercial CO2 Soda Syphon Charger. […] At this point, approximately 333 ml of the carbonated water was decanted into a plastic bottle and 333 square inches of nanocrystalline silver-coated net was added to the water. The nanocrystalline silver-coated net and water were placed in 37° C. shaker incubator and shaken at 180 RPM for 30 minutes to elevate the pH to approximately 5.8. The solution was then transferred to a beaker and stirred vigorously for 2 minutes to raise the pH to approximately at 7.3. The dissolution solution was transferred to a commercial nebulizer which was connected to a medical air cylinder with a flow rate of approx. 20 L/min. The outflow of the nebulizer was connected to a animal chamber housing the rats to be dosed. Only the “test” rats (12 randomly assigned animals) received the dosing. The rats received two —½ hour aerosol administrations of the test solution on the day of infection. […]
On each day, six rats of each group of animals were sacrificed. […] Lungs were grossly scored (absent=0, mild=1, moderate=2, and severe=3) based on the degree and involvement of consolidation, hemorrhage, edema and necrosis based upon gross observation.

[4] = Solutions 1 and 3: Ag 85 (dressing) / 99 (AgNO3) μg/ml
[5] = Solutions 1 and 3: Ag 85 / 99 μg/ml
[6] = Solutions 2 and 4: Ag 370 (dressing) / 300 (AgNO3) μg/ml
[7] = Solutions 2 and 4: Ag 370 / 300 μg/ml
[8] = Solutions 1 and 3: Ag 85 / 99 μg/ml, regrowth in Tryptic soy broth

O=[N+]([O-])[O-].[Ag+] [AgNO3, silver nitrate]
Growth at 16 h (0−++++) (Pseudomonas aeruginosa; [4]): 0
Growth at 48 h (0−++++) (Pseudomonas aeruginosa; [5]): 0
Viable 4 h (Pseudomonas aeruginosa; [5]): No
Viable 16 h (Pseudomonas aeruginosa; [5]): No
Viable 16 h (Pseudomonas aeruginosa; Solutions 1 and 3: Ag 85 / 99 μg/ml, listed as AgNo3): Yes
Growth at 16 h (0−++++) (Pseudomonas aeruginosa; [6]): 0
Growth at 48 h (0−++++) (Pseudomonas aeruginosa; [7]): 0
Viable 4 h (Pseudomonas aeruginosa; [7]): No
Viable 16 h (Pseudomonas aeruginosa; [7]): No
Growth at 16 h (0−++++) (Staphylococcus aureus; [4]): 0
Growth at 16 h (0−++++) (Staphylococcus aureus; Solutions 1 and 3: Ag 85 (dressing) / 99 (AgNO3) μg/ml, listed as AgNo3): ++++
Growth at 48 h (0−++++) (Staphylococcus aureus; [5]): ++++
Viable 4 h (Staphylococcus aureus; [8]): No
Viable 16 h (Staphylococcus aureus; [8]): Yes
Viable 4 h (Staphylococcus aureus; Solutions 1 and 3: Ag 85 / 99 μg/ml, regrowth in Tryptic soy broth, listed as AgNo3): Yes
Growth at 16 h (0−++++) (Staphylococcus aureus; [6]): 0
Growth at 48 h (0−++++) (Staphylococcus aureus; [7]): +++
Viable 4 h (Staphylococcus aureus; Solutions 2 and 4: Ag 370 / 300 μg/ml, regrowth in Tryptic soy broth): No
gross score of lungs [1]: moderately to severely inflamed

NC[C@H]1O[C@H](O[C@H]2[C@H](O)[C@@H](O[C@H]3O[C@H](CO)[C@@H](O)[C@H](N)[C@H]3O)[C@H](N)C[C@@H]2N)[C@H](N)C[C@@H]1O [Tobramycin]
Comments (histopathology) ([2]; Time 24): Severe infiltration of PMNs into interstitial spaces.
Consol Score ([2]; Time 24): 3
Inflam Score ([2]; Time 24): 3
Comments (histopathology) ([2]; Time 48): Severe infiltration of PMNs into interstitial spaces.
Involvement of sample ([2]; Time 48): in affected areas. Involvement of 70% of sample.
Consol Score ([2]; Time 48): 3
Inflam Score ([2]; Time 48): 3
gross lung score ([3]; 24 h): 2 (3×) and 3 (2×) and 1
gross lung score ([3]; 48 h): 1 (4×) and 2 and Dead
